Test results taken from patent US20090082355A1, “Method of Combating Root Weevils” (BASF SE, priority 2006, published 2009).

Legend:
Assay type in all cases: in vivo, Otiorhynchus sulcatus (black vine weevil)
Otiorhynchus sulcatus [1] = test: Control of Otiorhynchus sulcatus eggs/first instar larvae on the Spreading Yew (treated potting medium); settings: DC formulation, Taxus media densiformis, 25 eggs per plant, live larvae recorded after 3 months
Procedure: Taxus media densiformis plants were planted in potting medium (60% parts pine bark, 20% hardwood bark and 20% peat) which had been treated before with a DC formulation of the active ingredient diluted with water. Plants were maintained outdoors under standard nursery management conditions throughout the growing season. Incubated vine weevil eggs were obtained from a culture of field-collected adults. Plants were infested with 25 brown eggs each. The total number of live larvae was recorded after 3 months. Each experiment was replicated 5 times.

Otiorhynchus sulcatus [2] = test: Control of Otiorhynchus sulcatus larvae in the woody ornamental Thuja occidentalis 'Holmstrub' (pot trial); settings: for Average feeding on roots: method B, index 1 no feeding observed to 4 most roots are damaged; for Average number of total larvae: treatment method B (drench), 20 eggs per pot, approx. 8 months after treatment
Procedure: Root cuttings of Thuja occidentalis ‘Holmstrub’ were potted in 3-liter containers using a standard soil substrate and first placed on an outdoor container field for four months and then transferred to an indoor container field at a temperature of 15-20° C. for another four months. In treatment method A, 750 g Suscon (chloropyrifos)/m^3 were mixed through the soil substrate. In treatment method B, the calculated amount of product was dissolved in 0.75 l water and added to the 3 litre pot as a drench. The soil of the pot was moistened before application. Eggs of Otiorhynchus sulcatus (20 eggs per pot) were added to the pots 15 weeks after treatment. Approximately 8 months after treatment, the average total number of live larvae (hereinafter also referred to as “average of total larvae”) and the average feeding on the roots were determined. The feeding on the roots was assessed according to the following index rating:
1 no feeding observed 2 slight feeding 3 significant feeding, few root tips are present 4 most roots are damaged
Each experiment was replicated 4 times.

Otiorhynchus sulcatus [3] = test: Control of Otiorhynchus sulcatus adults on Euonymus fortunei 'Dart's Blanket': contact effect; settings: 20° C.
Procedure: (§1) The efficacy of different doses of compound I-1 to control adults of the black vine weevil (Otiorhynchus sulcatus) was tested after direct contact and after feeding of the product. The formulated product was dissolved in water and the resulting aqueous solution/suspension was applied to black vine weevil adults directly or to Euonymus fortunei branches and the branches were exposed to black vine weevil adults.
The treatments were applied by spraying 10 black vine weevils per petri-dish. The vine weevils were completely moistened after spraying. Afterwards the vine weevils were put into a bucket, in which 5 untreated branches of Euonymus fortunei ‘Dart's Blanket’ were placed. The buckets were randomly placed on Danish lorries in a climate cell. After 1 and 5 days, the number of dead vine weevils was counted. The climate cell was adjusted at a constant temperature of 20° C. with 16 hours of light and 8 hours of darkness. Each treatment was replicated 4 times.

Otiorhynchus sulcatus [4] = test: Control of Otiorhynchus sulcatus adults on Euonymus fortunei 'Dart's Blanket': feeding effect; settings: 10 untreated weevils, 20° C.
Procedure: as §1
4 plants of Euonymus fortunei ‘Dart's Blanket’ per treatment were sprayed until drip stadium. 10 untreated black vine weevils were put in a bucket in which 5 treated branches were placed. The buckets were randomly placed on Danish lorries in a climate cell. After 5 and 10 days the number of dead vine weevils were counted. The climate cell was adjusted at a constant temperature of 20° C. with 16 hours of light and 8 hours of darkness. Each treatment was replicated 4 times.

[5] = 1.14 g a.i./l sprayed on 10 weevils
[6] = 2.27 g a.i./l sprayed on 10 weevils
[7] = 4.56 g a.i./l sprayed on 10 weevils
[8] = branches sprayed with 1.14 g a.i./l
[9] = branches sprayed with 2.27 g a.i./l
[10] = branches sprayed with 4.56 g a.i./l

## CCNC(=NNc1c(Cl)cc(C(F)(F)F)cc1Cl)C1(C)CC1(Cl)Cl (stereo not drawn) [Compound I-1, N-Ethyl-2,2-dichloro-1-methylcyclopropane-carboxamide-2-(2,6-dichloro-α,α,α-trifluoro-p-tolyl)hydrazone]
Otiorhynchus sulcatus [1]; rate 250 ppm in potting medium
  control: over 95%
Otiorhynchus sulcatus [1]; rate 750 ppm in potting medium
  control: over 95%
Otiorhynchus sulcatus [1]; rate 1500 ppm in potting medium
  control: over 95%
Otiorhynchus sulcatus [2]; 0.9125 g or ml product/3 l pot
  Average feeding on roots: 1.1
  Average number of total larvae: 0.1
Otiorhynchus sulcatus [2]; 1.825 g or ml product/3 l pot
  Average feeding on roots: 1.0
  Average number of total larvae: 0.0
Otiorhynchus sulcatus [2]; 3.65 g or ml product/3 l pot
  Average feeding on roots: 1.0
  Average number of total larvae: 0.0
Otiorhynchus sulcatus [2]; Thuja occidentalis 'Holmstrub' pot trial
  phytotoxicity: no signs of phytotoxicity
Otiorhynchus sulcatus [2]; all treatments in different doses
  efficacy against the larvae (in words): effective against the larvae of Otiorhynchus sulcatus
Otiorhynchus sulcatus [2]; versus Suscon (chloropyrifos)
  control of larvae and feeding damage compared with the standard treatment: better control of Otiorhynchus sulcatus larvae and feeding damage than the standard treatment of Suscon (chloropyrifos)
Otiorhynchus sulcatus [3]; [5]
  Average number of dead adults after 1 day: 0.5
  Average number of dead adults after 5 days: 6.0
Otiorhynchus sulcatus [3]; [6]
  Average number of dead adults after 1 day: 0.3
  Average number of dead adults after 5 days: 9.0
Otiorhynchus sulcatus [3]; [7]
  Average number of dead adults after 1 day: 0.8
  Average number of dead adults after 5 days: 8.5
Otiorhynchus sulcatus [4]; [8]
  Average number of dead adults after 5 days: 8.5
  Average number of dead adults after 10 days: 10.0
Otiorhynchus sulcatus [4]; [9]
  Average number of dead adults after 5 days: 6.5
  Average number of dead adults after 10 days: 8.8
Otiorhynchus sulcatus [4]; [10]
  Average number of dead adults after 5 days: 8.8
  Average number of dead adults after 10 days: 10.0
